In the supplement of paper PMC8372320:

Assay: photocatalytic hydrogen evolution rate (per 5 mg catalyst); higher = more photocatalytic H2 evolution; extreme values may be limits of the assay
Conditions: catalyst mass (mg): 5; Pt cocatalyst (wt%): 3; sacrificial medium: triethylamine/methanol/water 1:1:1
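Note: aromatic molecules in triethylamine/methanol/water with Pt photoreduced in situ, irradiated 3 h under a 1 sun AM 1.5G solar simulator (350–1000 nm), H2 quantified by headspace gas chromatography; listed molecule itself used as the photocatalyst at 5 mg per vial.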

Compound	photocatalytic hydrogen evolution rate [µmol/h]
O=C1OC2(c3ccccc31)c1cc(I)c(O)c(I)c1Oc1c2cc(I)c(O)c1I	28.3
COC(=O)c1ccc(-c2ccc(C(=O)OC)cc2)cc1	0.00435
c1cc(-c2cn[nH]c2)ccc1-c1cn[nH]c1	0
O=C1OC2(c3ccc(O)cc3Oc3cc(O)ccc32)c2ccccc21	20.2
Brc1ccc2c(c1)Cc1cc(Br)ccc1-2	0
O=C1OC2(c3ccccc31)c1cc(Br)c(O)c(Br)c1Oc1c2cc(Br)c(O)c1Br	23.9
O=Cc1ccc(O)c(Cl)c1	0.0661
c1ccc(-c2ccccc2)cc1	0
c1ccc(-c2cccc(-c3ccccc3)c2)cc1	0
Brc1ccc(OCC2CCCCO2)c(Br)c1 (stereo not given)	0
N#Cc1c(F)c(F)c(C#N)c(F)c1F	8.13
Nc1c(Br)cnc(Br)c1N	0
O=Cc1ccc2nccnc2c1	0
Oc1ccc(-c2ccc(O)cc2)cc1	0.00401
N#Cc1c(-n2c3ccccc3c3ccccc32)c(-n2c3ccccc3c3ccccc32)cc(-n2c3ccccc3c3ccccc32)c1-n1c2ccccc2c2ccccc21	1.65
c1ccc(-c2c(-c3ccccc3)c(-c3ccccc3)c(-c3ccccc3)c(-c3ccccc3)c2-c2ccccc2)cc1	0
COC(=O)c1nc(N)c(Br)cc1Br	0
O=C(O)c1ccc(N=Nc2ccccc2)cc1	0
O=Cc1ncc[nH]1	0.469
Brc1cc(Br)c(Br)cc1Br	0
Fc1c(F)c(F)c(-c2c(F)c(F)c(F)c(F)c2F)c(F)c1F	0
Cc1cc(C=O)ccc1O	0.0172
CCc1c(CBr)c(CC)c(CBr)c(CC)c1CBr	0
N#CC(C#N)=C1CC(=C(C#N)C#N)c2ccccc21	0
C#Cc1ccc(Br)cc1	0
N#Cc1cncc(Br)c1	0
Ic1ccc(I)cc1	0

Compound	photocatalytic hydrogen evolution rate [µmol/h]
CCn1c2ccc(Br)cc2c2cc(Br)ccc21	1.25
N#Cc1nc2c3nc(C#N)c(C#N)nc3c3nc(C#N)c(C#N)nc3c2nc1C#N	0
CC(Oc1ccc(Br)cc1Br)C(=O)NN (stereo not given)	0
CCCCCCCCC1(CCCCCCCC)c2cc(B3OC(C)(C)C(C)(C)O3)ccc2-c2ccc(B3OC(C)(C)C(C)(C)O3)cc21	0.0342
O=C(O)C(c1ccccc1)(c1ccccc1)c1ccccc1	0
Brc1cc(Br)c2ccc3c(Br)cc(Br)c4ccc1c2c43	0.383
Brc1ccc2c(c1)oc1cc(Br)ccc12	0
O=Cc1ccc(F)c(O)c1	0.000356
Cc1ccc(C)c(N=Nc2cc(C)c(N=Nc3c(O)ccc4ccccc34)cc2C)c1	0
CC1(C)OB(c2ccc(-c3cccs3)s2)OC1(C)C	0
COC(=O)c1ccnc(-c2cc(C(=O)OC)ccn2)c1	0
Brc1ccc(Br)c2nsnc12	1.29
O=C1C(F)=C(F)C(=O)C(F)=C1F	0
O=Cc1ccc(N2CCCCC2)cc1	0.431
O=C1C(=O)c2cccnc2-c2ncccc21	0
N#CCc1ccccc1CC#N	0
Brc1ccc2c(c1)C1(c3cc(Br)ccc3-2)c2cc(Br)ccc2-c2ccc(Br)cc21	0.0511
O=C(C(=O)c1ccc(C(=O)C(=O)c2ccccc2)cc1)c1ccccc1	0.00597
Brc1ccc(-c2ccc(-c3ccc(Br)s3)s2)s1	0
Cn1c2ccccc2c2cc(C=O)ccc21	2.49
Cc1c(O)cccc1O	0
O=C(O)C1CCN(C(=O)c2ccccc2)CC1	0
CC(=O)c1ccc(N)cc1	0.229
c1ccc2cc3ccccc3cc2c1	0
c1cc2ccc3cccc4ccc(c1)c2c34	0.198
COc1cc(C=O)cc(OC)c1	5.78
Cc1ccc(N(c2ccccc2)c2ccccc2)cc1	0

Compound	photocatalytic hydrogen evolution rate [µmol/h]
OC(c1ccccc1)c1ccccc1	0
O=Cc1ccc(-c2nc(-c3ccc(C=O)cc3)nc(-c3ccc(C=O)cc3)n2)cc1	0.298
c1ccc(-c2cc(-c3ccccc3)nc(-c3ccccc3)c2)cc1	0
c1ccc(-c2nc(-c3ccccc3)nc(-c3ccccc3)n2)cc1	0.0789
Brc1ccc2c(c1)C1(c3ccccc3-c3ccccc31)c1cc(Br)ccc1-2	0
N#CCc1ccc(Cl)nc1	0
CC(=O)c1ccc([N+](=O)[O-])cc1	0
COC(=O)c1cc(Br)oc1Br	0
Nc1ccc(C(c2ccc(N)cc2)(c2ccc(N)cc2)c2ccc(N)cc2)cc1	0
c1ccc(Nc2ccccc2)cc1	0
N#Cc1ccc(C#N)cc1	0
N#Cc1ccccc1-c1ccccc1C#N	0
CN1CCN(c2ccc(C=O)cc2)CC1	0.409
O=Cc1ccc(Br)nc1	0.297
N#Cc1c(F)cc(F)cc1F	0.0527
O=C1C(c2ccccc2)=C(c2ccccc2)C(c2ccccc2)=C1c1ccccc1	0.0996
O=Cc1cc(Br)ccc1O	10.5
COC(=O)c1ccc(-c2ccc(Br)cc2)cc1	0.0357
Brc1ccc2cc(Br)ccc2c1	0
Nc1ccccc1-c1ccccc1	0
N#Cc1ccc(N)cc1	0
N#Cc1c(Cl)c(Cl)c(C#N)c(Cl)c1Cl	1.44
Cc1cc(C)cc([N+](=O)[O-])c1	0
N#Cc1cc(O)cc(C#N)c1	2.14
c1csc(-c2ccc(-c3cccs3)s2)c1	0
C(=C\c1ccccc1)/c1ccccc1	0
Nc1ccc(-c2ccc(N)c(F)c2)cc1F	0

Compound	photocatalytic hydrogen evolution rate [µmol/h]
O=Cc1c2ccccc2cc2ccccc12	2.06
C1=Cc2nc1c(-c1ccccc1)c1ccc([nH]1)c(-c1ccccc1)c1nc(c(-c3ccccc3)c3ccc([nH]3)c2-c2ccccc2)C=C1	1.32
Cc1cncc(C)n1	0.0345
N#Cc1cnc(N)c(C#N)c1	0.468
N#Cc1cc(Br)cs1	0
NNC(=O)COc1ccc(Br)cc1Br	0
CCOC(=O)c1cc(C(=O)OCC)cc(C(=O)OCC)c1	0.0434
Cc1cc(-c2ccc(N)c(C)c2)ccc1N	0
N#CCC(=O)c1ccc2c(c1)CCCC2	0
O=Cc1cccc(C(=O)O)c1	1.06
N#Cc1ccc(Br)nc1	0
N#Cc1ccc(-c2ccc(C#N)cn2)nc1	0
O=Cc1cc(F)c(O)c(F)c1	0.191
Nc1c(F)c(F)c(N)c(F)c1F	0
Nc1nc2ccccc2[nH]1	0
COC(=O)c1cc(C(=O)OC)c(C(=O)OC)cc1C(=O)OC	0
c1ccc(C(c2ccccc2)c2ccccc2)cc1	0
Cc1ccc(C(=O)c2ccccc2)cc1	3.44
Brc1cccc2cc3cccc(Br)c3cc12	0
CN(C)c1ccc(C=O)cc1	0.34
Brc1cnc2c(ccc3cc(Br)cnc32)c1	0.655
O=Cc1ccccc1P(c1ccccc1)c1ccccc1	0.079
N#Cc1cccnc1-c1ncccc1C#N	0
O=C(/C=C/c1ccccc1)c1ccccc1	0.146
